Assay [1] relates to Mouse BCR transgenic B cells. In words: Antigen presentation of mouse BCR transgenic B cells (antigen-loading via MHC II). The following applies: Mouse BCR tg B cell; stimulus HEL; mean of at least four experiments; read-out: IC50 APC function. The assay is classed as cell-based. An excerpt: Purification of CD19^+ splenic B cells from MD4 HEL BcR Tg mice MD4 HEL BcR transgenic B10.BR (MD4 B10.BR) mice were a kind gift from Prof. Jose Moreno (Research Unit on Autoimmune Diseases, Centro Medico Nacional Siglo XXI, Mexico).
The spleens were isolated from MD4 B10.BR and non-transgenic litter control B10.BR mice after sacrificed by exposure to excess amount of isoflurane. The isolated spleens were suspended in RPMI1640 (Invitrogen, #31870), and dissociated by GentleMACS Dissociator (Miltenyi Biotec), and filtrated with Cell Strainer (BD Falcon, 70 μm mesh, #352350). […] The purity was determined via the proportion of CD19 cells in the separated fraction in FACS analysis, and was more than 95%.
Purified B cells were re-suspended in 50 μl of ice-cold FACS buffer (PBS supplemented with 0.1% azide and 0.1% BSA). […] Stained cell samples were washed with 5 ml of ice-cold FACS buffer twice, and analyzed by FACS Calibur (BD Bioscience). […]
FACS Data was analyzed, and their mean fluorescence intensity (MFI) were calculated with FlowJo software (Tree Star Inc). The IC50 values were calculated with GraphPad PRISM ver 6.0 software (GraphPad Software Inc). […]

Another assay relates to Murine B cells. In words: Mouse B cell proliferation following BCR stimulation. The assay is classed as cell-based. The following applies: Mouse spleen, stimulus Anti-IgM, mean of at least two experiments. Here is the method: Murine B cells were stimulated via BCR by anti-IgM antibody in the presence of titrated amounts of compounds as described in (Julius et al 1984) and proliferation was assessed by incorporation of radioactive ^3H-Thymidine.

In the next assay the test system is PI3K/Akt pathway. Description: pAkt in B cells in stimulated whole blood clinical samples after single oral administration. The assay is classed as in vivo. The following applies: healthy human subjects. Here is the method: For assessment of the in vivo effects of compound A on human B cell activation measured as Akt phosphorylation vlinical samples were prepared from whole blood using a Na-Heparin monovette system.
Whole blood was then incubated with either anti-IgM/IL-4 (7.5 μg/ml of anti-IgM [Southern Biotech] and 7.5 ng/ml of IL-4 [R&D]) or with PBS (unstimulated sample). Incubation was performed using 95 μl of blood (in duplicates) in plate format within 1 h after blood collection. Cultures were mixed well by gently pipetting up and down and incubated at 37° C. (in incubator, 5% CO2). After 30 min whole blood was lysed and fixed with pre-warmed (37° C.) BD PhosFlow-Lyse/Fix buffer (1600 μl) for 20 minutes at 37° C. (water bath) in the dark. The lysed and fixed blood samples were immediately frozen and stored at −80° C. until further processing.
Clinical samples were processed within one week after blood collection. After thawing was completed (at 37° C. water-bath), samples were centrifuged at 502 g (1580 rpm) for 5 min at room temperature. Then pelleted cells were washed with 500 μL ice cold BD Phosflow Perm II buffer, mixed well and kept on ice for 30-35 minutes. […]
Samples were analyzed on the same day. […] Data was calculated as percent inhibition of pAkt relative to the baseline value.

pIC50: −log10 of the molar value.

The source of these data is patent US20190038628A1, “USE OF INHIBITORS OF THE ACTIVITY OR FUNCTION OF PI3K FOR THE TREATMENT OF PRIMARY SJOGREN'S SYNDROME” (Novartis AG, priority 2016, published 2019).

With `CCC(=O)N1CC[C@H](Nc2ncnc3c2CN(c2cnc(OC)c(C(F)(F)F)c2)CC3)C1` [Compound A, 1-{(S)-3-[6-(6-Methoxy-5-trifluoromethyl-pyridin-3-yl)-5,6,7,8-tetrahydro-pyrido[4,3-d]pyrimidin-4-ylamino]-pyrrolidin-1-yl}-propan-1-one], the values for the pIC50 (in assay [1]; in the assay with Murine B cells) were 6.40 and 8.10, respectively. Also, the “pathway inhibition (PI3K/Akt)” value in the assay on PI3K/Akt pathway (single administration of 80 mg, over 12 hours) is “greater than 80%”. The “inhibition of the PI3K/Akt pathway (in words)” value in the assay on PI3K/Akt pathway (single oral administration) is “dose-, concentration- and time-dependent inhibition”.
